16 compounds from patent publication US10934282B2, “Heteroaromatic modulators of the retinoid-related orphan receptor gamma” (LEO PHARMA A/S, priority 2016, dated 2021) can be followed below.

SMILES strings stand for the structures.

The target in experiment [1] is T1, human RORgt nuclear receptor (RORgT ligand binding domain protein) (Homo sapiens, UniProt P51449).
T1 construct: purchased Proteros Biostructures GmbH
T1 sequence (P51449 with tags, fused parts or gaps): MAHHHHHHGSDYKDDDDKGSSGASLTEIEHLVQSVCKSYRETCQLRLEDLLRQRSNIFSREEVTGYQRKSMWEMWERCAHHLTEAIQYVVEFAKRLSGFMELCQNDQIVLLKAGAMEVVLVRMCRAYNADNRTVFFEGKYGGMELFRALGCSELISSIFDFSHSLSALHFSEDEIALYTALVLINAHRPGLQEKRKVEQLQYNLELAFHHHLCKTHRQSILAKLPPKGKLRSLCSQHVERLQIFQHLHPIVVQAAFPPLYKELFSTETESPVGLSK
As to the kind of experiment: ROR-gamma binding assay (Scintillation Proximity Assay, displacement of [3H]-25-hydroxycholesterol). Particulars: EC50, SPA, 15 nM [3H]-25-Hydroxycholesterol, RORgT LBD 12 nM. Here is the method:
This assay is used to evaluate the binding affinity of compounds to the ligand-binding pocket of the human RORgt nuclear receptor based on displacement of a radio-ligand. The EC50 values are calculated using a four parameter fit. Compounds binding with high affinity to RORgt will have low EC50 values.
The assay is a Scintillation Proximity Assay (SPA) that involves competition between an unlabeled test compound and tritium-labeled 25-hydroxycholesterol for binding to RORgT ligand binding domain (LBD) protein immobilized on the surface of SPA beads. These beads contain a scintillant that emits light if excited by a radioactive particle, and this light is detected using a scintillation counter. In this assay, tritium-labelled 25-hydroxycholesterol is used as radiotracer.
400 nL of titrated test and reference compounds in DMSO were transferred by the Echo liquid handling system to a 384-well assay plate followed by addition of 5 μL [3H]-25-Hydroxycholesterol (Perkin Elmer) and 35 μL diluted RORgT LBD protein with the following amino acid sequence (HIS-FLG-tag): MAHHHHHHGSDYKDDDDKGSSGASLTEIEHLVQSVCKSYRETCQLRLEDLLRQRSNIFSREEVTGYQRKSMWEMWERCAHHLTEAIQYVVEFAKRLSGFMELCQNDQIVLLKAGAMEVVLVRMCRAYNADNRTVFFEGKYGGMELFRALGCSELISSIFDFSHSLSALHFSEDEIALYTALVLINAHRPGLQEKRKVEQLQYNLELAFHHHLCKTHRQSILAKLPPKGKLRSLCSQHVERLQIFQHLHPIVVQAAFPPLYKELFSTETESPVGLSK (SEQ ID NO: 1) (Purchased from Proteros Biostructures GmbH). After 30 min of preincubation, 40 μL of HIS-TAG PVT SPA beads (Perkin Elmer) were added. The plates were then incubated for minimum 4 hours at room temperature in darkness before measuring the SPA signal using a MicroBeta plate scintillation counter. Final assay conditions were: 50 mM HEPES pH 7.4, 150 mM NaCl, 5 mM MgCl2, 0.1% BSA, 4 μg/well HIS-TAG PVT SPA Beads, 30 ng/well RORgT LBD (equal to a final concentration of 12 nM), 15 nM [^3H]-25-Hydroxycholesterol, 0.5% DMSO and varying concentrations of test compound in a total volume of 80 μL/well. EC50 values were calculated using a 4-parameter non-linear regression curve-fitting model.
In general terms: In a scintillation proximity assay essentially only radioactivity close to the scintillant gives light.

The subject of experiment [2] is IL-17A in Human peripheral mononuclear cells. The experiment can be described thus: Human PBMC IL-17A assay. Format: cell-based. As to conditions: 72 h, EC50, antiCD3/antiCD28-coated beads, 3 days, alpha-LISA. Here is the method:
This assay measures the IL-17A inhibitory potential of test compounds in Human peripheral mononuclear cells.
Peripheral blood mononuclear cells (PBMC) were isolated from human buffy coats using density grade centrifugation (Lymphoprep, Medinor), washed twice in PBS and frozen at −150° C. for later use.
Test compounds were diluted in DMSO and 70 nL of titrated test and reference compounds were transferred by the Echo liquid handling system to a 384-well assay plate in to give a final concentration of 0.1% DMSO in the wells.
The PBMC were thawed, washed and suspended in RPMI-1640 supplemented with pen/strep, glutamax and 10% bovine calf serum. The cells were mixed with antiCD3/antiCD28-coated beads (1 cells pr one bead) (Milteney T-cell expansion kit), and immediately thereafter the cells were pipetted to the plate at 130,000c/well. The plate was incubated for 3 days in humidified air/CO2 (95%/5%) On day 3 the level of IL-17A in the culture supernatant is measured using alpha-LISA kit (Perkin Elmer). Cell viability was measured by adding 6 uL pr well Prestoblue© (Life Technologies) and incubating for 2 hours followed by fluorescent measurement (Ex535/Em615). EC50 values were calculated using a 4-parameter non-linear regression curve-fitting model. Donors may be pre-screened in order to select PBMC with a high secretion of IL-17A.

Experiment [3] relates to IL-17A levels in human peripheral blood. The experiment can be described thus: tissue or blood. Format: cell-based. Particulars: 72 h, read-out: Human Whole blood IL-17A (nM).

On to `Cc1c(CN2CCN(C(=O)c3ccccc3)[C@@H](C)C2)cc(Cl)cc1Nc1nnc(C#N)o1` [Example 1, 5-[3-[[(3S)-4-benzoyl-3-methyl-piperazin-1-yl]methyl]-5-chloro-2-methyl-anilino]-1,3,4-oxadiazole-2-carbonitrile], for which the values for the EC50 in experiment [1] and in experiment [2] were 0.0402 µM and 3.03 µM, respectively.
Regarding `COCc1nnc(Nc2cc(Cl)cc(CN3CCN(C(=O)c4ccccc4)[C@@H](C)C3)c2C)o1` [Example 2, [(2S)-4-[[5-chloro-3-[[5-(methoxymethyl)-1,3,4-oxadiazol-2-yl]amino]-2-methyl-phenyl]methyl]-2-methyl-piperazin-1-yl]-phenyl-methanone], the EC50 in experiment [3] was determined as 454 nM; in experiment [1] it was 0.029 µM; in experiment [2], 0.137 µM.
`Cc1c(CN2CCN(C(=O)c3ccccc3)[C@@H](C)C2)cc(Cl)cc1Nc1nnc(C2CCOC2)o1` (stereo partly drawn) [Example 3, [(2S)-4-[[5-chloro-2-methyl-3-[(5-tetrahydrofuran-3-yl-1,3,4-oxadiazol-2-yl)amino]phenyl]methyl]-2-methyl-piperazin-1-yl]-phenyl-methanone]: the EC50 in experiment [3] worked out at 204 nM; in experiment [1], 0.0223 µM; in experiment [2], 0.0511 µM.
Take `Cc1c(CN2CCN(C(=O)c3ccccc3)[C@@H](C)C2)cc(Cl)cc1Nc1nnc(C2CCCO2)o1` (stereo partly drawn) [Example 4, [(2S)-4-[[5-chloro-2-methyl-3-[(5-tetrahydrofuran-2-yl-1,3,4-oxadiazol-2-yl)amino]phenyl]methyl]-2-methyl-piperazin-1-yl]-phenyl-methanone]: the EC50 in experiment [3] was determined as 428 nM; in experiment [1], 0.0299 µM; in experiment [2], 0.0347 µM.
For `Cc1c(CN2CCN(C(=O)c3ccccc3)[C@@H](C)C2)cc(Cl)cc1Nc1nnc(C2CC2)o1` [Example 5, [(2S)-4-[[5-chloro-3-[(5-cyclopropyl-1,3,4-oxadiazol-2-yl)amino]-2-methyl-phenyl]methyl]-2-methyl-piperazin-1-yl]-phenyl-methanone], in that order: 385 nM, 0.0226 µM and 0.0697 µM.
Turning to `Cc1c(CN2CCN(C(=O)c3ccccc3)[C@@H](C)C2)cc(Cl)cc1Nc1nnc(C2(O)CC2)o1` [Example 6, [(2S)-4-[[5-chloro-3-[[5-(1-hydroxycyclopropyl)-1,3,4-oxadiazol-2-yl]amino]-2-methyl-phenyl]methyl]-2-methyl-piperazin-1-yl]-phenyl-methanone], the figures for the EC50 in experiment [3], in experiment [1] and in experiment [2] were 504 nM, 0.0317 µM and 0.234 µM, respectively.
For `Cc1c(CN2CCN(C(=O)c3ccccc3)[C@@H](C)C2)cc(Cl)cc1Nc1nnc(CCC#N)o1` [Example 7, 3-[5-[3-[[(3S)-4-benzoyl-3-methyl-piperazin-1-yl]methyl]-5-chloro-2-methyl-anilino]-1,3,4-oxadiazol-2-yl]propanenitrile], in that order: 219 nM, 0.033 µM and 0.0498 µM.
For `CCC(F)(F)C(=O)N1CCN(Cc2cc(Cl)cc(Nc3nnc(COC)o3)c2C)C[C@@H]1C` [Example 8, 1-[(2S)-4-[[5-chloro-3-[[5-(methoxymethyl)-1,3,4-oxadiazol-2-yl]amino]-2-methyl-phenyl]methyl]-2-methyl-piperazin-1-yl]-2,2-difluoro-butan-1-one], the figures for the EC50 in experiment [3], in experiment [1] and in experiment [2] were 497 nM, 0.069 µM and 0.251 µM, respectively.
Taken in the same sequence, the figures for `COCc1nnc(Nc2cc(Cl)cc(CN3CCN(C(=O)c4ccccc4F)[C@@H](C)C3)c2C)o1` [Example 9, [(2S)-4-[[5-chloro-3-[[5-(methoxymethyl)-1,3,4-oxadiazol-2-yl]amino]-2-methyl-phenyl]methyl]-2-methyl-piperazin-1-yl]-(2-fluorophenyl)methanone] were 254 nM, 0.0235 µM and 0.0993 µM.
As for `COCc1nnc(Nc2cc(Cl)cc(CN3CCN(C(=O)C4CCC(F)(F)C4)[C@@H](C)C3)c2C)o1` (stereo partly drawn) [Example 10, [(2S)-4-[[5-chloro-3-[[5-(methoxymethyl)-1,3,4-oxadiazol-2-yl]amino]-2-methyl-phenyl]methyl]-2-methyl-piperazin-1-yl]-(3,3-difluorocyclopentyl)methanone], the EC50 in experiment [3] was determined as 296 nM; in experiment [1] it was 0.0454 µM; in experiment [2], 0.173 µM.
Take `CC[C@H](C)C(=O)N1CCN(Cc2cc(Cl)cc(Nc3nnc(COC)o3)c2C)C[C@@H]1C` [Example 11, (2S)-1-[(2S)-4-[[5-chloro-3-[[5-(methoxymethyl)-1,3,4-oxadiazol-2-yl]amino]-2-methyl-phenyl]methyl]-2-methyl-piperazin-1-yl]-2-methyl-butan-1-one]: the EC50 in experiment [3] stood at 132 nM; in experiment [1], 0.0281 µM; in experiment [2], 0.0926 µM.
As to `Cc1cc(CN2CCN(C(=O)OC(C)(C)C)[C@@H](C)C2)c(C)c(Nc2nnc([C@H](C)O)o2)c1` [Example 28, tert-butyl (2S)-4-[[3-[[5-[(1S)-1-hydroxyethyl]-1,3,4-oxadiazol-2-yl]amino]-2,5-dimethyl-phenyl]methyl]-2-methyl-piperazine-1-carboxylate], the EC50 in experiment [1] was 0.0355 µM; in experiment [2] it was 0.107 µM.
Taken in the same sequence, the figures for `Cc1c(CN2CCN(C(=O)OCC(F)(F)F)[C@@H](C)C2)cc(Cl)cc1Nc1nnc(CC#N)o1` [Example 69, 2,2,2-trifluoroethyl (2S)-4-[[5-chloro-3-[[5-(cyanomethyl)-1,3,4-oxadiazol-2-yl]amino]-2-methyl-phenyl]methyl]-2-methyl-piperazine-1-carboxylate] were 0.07 µM and 0.308 µM.
For `Cc1cc(CN2CCN(C(=O)O[C@H](C)C(F)(F)F)[C@@H](C)C2)c(C)c(Nc2nnc([C@H]3NCC[C@H]3O)o2)c1` [Example 80, [(1R)-2,2,2-trifluoro-1-methyl-ethyl] (2S)-4-[[3-[[5-[(2S,3R)-3-hydroxypyrrolidin-2-yl]-1,3,4-oxadiazol-2-yl]amino]-2,5-dimethyl-phenyl]methyl]-2-methyl-piperazine-1-carboxylate], in that order: 0.0223 µM and 0.07 µM.
Take `Cc1cc(CN2CCN(C(=O)OCC(F)(F)F)[C@@H](C)C2)c(C)c(Nc2nnc([C@H]3NCC[C@H]3O)o2)c1` [Example 81, 2,2,2-trifluoroethyl (2S)-4-[[3-[[5-[(2S,3R)-3-hydroxypyrrolidin-2-yl]-1,3,4-oxadiazol-2-yl]amino]-2,5-dimethyl-phenyl]methyl]-2-methyl-piperazine-1-carboxylate]: the EC50 is 0.11 µM in experiment [1] and 1.52 µM in experiment [2].
As for `CC[C@@H](C)OC(=O)N1CCN(Cc2cc(C)cc(Nc3nnc([C@H]4NCC[C@H]4O)o3)c2C)C[C@@H]1C` [Example 82, [(1R)-1-methylpropyl] (2S)-4-[[3-[[5-[(2S,3R)-3-hydroxypyrrolidin-2-yl]-1,3,4-oxadiazol-2-yl]amino]-2,5-dimethyl-phenyl]methyl]-2-methyl-piperazine-1-carboxylate], the EC50 came out at 0.032 µM in experiment [1] and 0.046 µM in experiment [2].
